Values of other authors as cited in patent publication US20120277156A1, “INHIBITION OF PATHOLOGICAL BONE FORMATION” (priority 2009, published 2012).

System: proprioception
Settings: rat, in vivo

## CCN(CC)CC(=O)Nc1c(C)cccc1C [lidocaine]
  time by which function was fully recovered: ≤ 120 min
